From patent publication US8481716B2 (Wacker Chemie AG, priority 2004, dated 2013) come the findings set out here.

SMILES strings stand for the structures.

Type in all cases: physicochemical
Data set [1] in a line: Differential Scanning Calorimetry analysis for uncomplexed alpha-lipoic acid. As to conditions: DSC. The procedure: Cyclodextrin complexes (3-6 mg sample size) were analyzed using Differential Scanning Calorimeter (DSC). […] This peak, if present, was compared to a peak at this temperature of pure alpha-lipoic acid to calculate percentage of uncomplexed alpha-lipoic acid in the complex. […] The peak around 60° C. decreases with increasing degree of complexation.

Data set [2] in a line: Temperature stability at 40° C.
Data set [3] in a line: Temperature stability at 25° C. As to conditions: for Content ALA: 25° C. The protocol:
Alpha lipic acid/cyclodextrin complexes were stored in a closed polypropylene container at 25° C.

A short description of data set [4]: Temperature stability at 100° C.
Setting [5] is: closed polypropylene container, 0 days of storage, initial content set to 100%.

For `O=C(O)CCCCC1CCSS1` (stereo not drawn) [Pure ALA, Alpha-lipoic acid], the “Non Complexed ALA” value in data set [1] (melting peak around 60° C. compared to pure ALA) was determined as 100%. For the same molecule, in data set [1] (complexed ALA in product), the “Complexed ALA” value is 0.0%. Also, the “Content ALA” value in data set [2] (8 days of storage) is 99%; in data set [2] (39 days of storage), 48*) %; in data set [2] (81 days of storage) it was 41*) %; in data set [2] (setting [5]), 100 ^ %; in data set [3] (39 days of storage) it was 100%; in data set [3] (67 days of storage), 100%. In addition, the “Content ALA” value is recorded as 100% in data set [3] (107 days of storage); 100% in data set [3] (setting [5]); 38% in data set [4] (3 days of storage); 13% in data set [4] (11 days of storage); 4% in data set [4] (28 days of storage); 0% in data set [4] (36 days of storage). In addition, the “Content ALA” value in data set [4] (closed glass containers, 0 days of storage, initial content set to 100%) is 100%. Also, the “stability at room temperature” value in data set [3] (25° C. storage) is given as “stable at room temperature”.
